The results in this text go back to US10144694B2, “Methods for preparing phenolic branched chain alkyl fatty acids or esters thereof and methods for killing microorganisms” (The United States of America, as Represented by the …, priority 2016, dated 2018).

For assay [1], the system named is Listeria innocua ATCC 33090. Kind of assay: MIC/MBC micro-dilution. Type of assay: cell-based. (Dilution methods test growth across graded concentrations, often in twofold steps.)
Assay [2] relates to Listeria innocua ATCC 33090. Kind of assay: Antimicrobial test, 5 min treatment, plate count. The following applies: 0.1%. Type of assay: cell-based. Here is the method:
Since the solutions contained 10% of ethanol, ethanol (10%) along with water were used as references. The bacteria and the solutions were vortexed and incubated at ambient temperature ([…]) for 5 min before immediately being plated (diluted when needed) on TSA to determine the survival of the bacteria. After 24 h at 37° C., colonies on the plates were counted.
Statistical analysis: Data on antimicrobial test were subjected to statistical analysis using SAS Version 8.2 (SAS Institute, Cary, N.C.). The Duncan's multiple range test was used for the treatment effects.

The mark [3] stands for this setting: Listeria innocua, ATCC33090, 24 h.

Converted amounts (≈) assume the structure as drawn. Read-outs that look alike come from different tables or passages of the source. Some results are limits rather than exact numbers.

With `Cc1ccc(C(C)C)c(O)c1` [Thymol], the MIC in assay [1] (ATCC33090, Listeria innocua ATCC 33090, 24 h at 37° C., read-out: MIC) is 233 to 454 µg/mL (≈ 1.55 to 3.03 mM). In addition, the MBC in assay [1] (ATCC33090, Listeria innocua ATCC 33090, read-out: MBC) was above 454 µg/mL.

For `CCCCCCCC/C=C\CCCCCCCC(=O)O` [OLA, oleic acid], in assay [2], the “Reduction of population of L. innocua” value turned out to be 3.5 logs CFU/mL.

With `Cc1ccc(C(C)C)cc1O` [Carvacrol], the MBC in assay [1] (Listeria innocua, ATCC33090) came out at 454 µg/mL (≈ 3.03 mM). The compound also came in with an MIC in assay [1] (setting [3]) of 233 to 454 µg/mL (≈ 1.55 to 3.03 mM).

As to `Oc1ccccc1` [Phenol, phenol], in assay [2], the “Effect on population of L. innocua” value is recorded as “no significant effect”. In assay [1] (Listeria innocua, ATCC33090), the MBC is above 454 µg/mL. In addition, the minimal inhibitory concentration (MIC) in assay [1] (setting [3]) was above 454 µg/mL.

As a reminder, the MIC is the lowest concentration found to suppress growth. One may read the MBC as the smallest concentration meeting the test's criterion for killing.
